In patent publication US20220073592A1, “SYNTHETIC AND RECOMBINANT COLLAGEN PEPTIDES HAVING BIOLOGICAL ACTIVITY” (GELITA AG, priority 2018, published 2022):
Where no end group is shown, it is not given here. [ ]: non-standard residue; d: D form. Hyp = O=C(O)[C@@H]1C[C@@H](O)CN1

Experiments:
Assay type in all cases: cell-based
[1] = system: human dermal fibroblasts; experiment: Sircol collagen assay, collagen synthesis by dermal fibroblasts; conditions: 0.5 mg/ml peptide, three weeks stimulation
Protocol: (§1) The human cells used were obtained from tebu-bio GmbH, Offenbach, Germany. The chondrocytes (Cat. No. 402-05a) or dermal fibroblasts (Cat. No. 106-05a) were first sown in 12-well culture plates and cultured at 37° C., 5% CO2 in Ham's F12 medium, to which 10% fetal calf serum, 20 U/ml penicillin-streptomycin and 50 μg/ml ascorbic acid were added. On every other day, the culture medium was replaced by new culture medium until the cells had reached 80% confluence. […] To investigate the collagen metabolism, the amount of newly synthesized collagen was determined after stimulating the cells with 0.5 mg/ml BCP for three weeks. The synthesized collagen was isolated using the Sircol assay (Article No. 054S5000, 2019, tebu-bio, Offenbach, Germany, or Biocolor Ltd., UK) according to the manufacturer's instructions. In brief, the culture medium was initially discarded and the adherent cell layers were digested with 0.1 mg pepsin solution in 0.5 M acetic acid at 4° C. overnight. The cell suspensions were neutralized by adding 100 μl of an acid-neutralizing reagent. The synthesized collagen was then separated off by adding 200 μl of an isolation and concentration solution with vigorous shaking at 4° C. overnight. After centrifugation (12,000 rpm, 10 min) and discarding the supernatant, the isolated collagen was resuspended in 1 ml of Sircol dye solution. After 30 minutes of shaking and another centrifugation, the collagen pellet was covered with 750 μl of cold acidic solid washing reagent. After another centrifugation, the supernatant was again discarded and the enriched collagen was taken up in 250 μl of alkaline solution. In each case 200 μl of the sample solutions were used for photometric quantification of the synthesized collagen. The absorbance was measured at a wavelength of 492 nm. The amount of collagen synthesized in each case was determined on the basis of standardized collagen solutions.

[2] = system: human dermal fibroblasts; experiment: Blyscan glycosaminoglycan assay, proteoglycan synthesis by dermal fibroblasts; conditions: 0.5 mg/ml, two weeks stimulation; for increase in collagen synthesis (in the proteoglycan assay, dermal fibroblasts): non-hydroxylated peptides; for increase in the synthesis of proteoglycans by dermal fibroblasts compared to untreated controls: hydroxylated peptides
Protocol: The human cells used were obtained from tebu-bio GmbH, Offenbach, Germany. The chondrocytes (Cat. No. 402-05a) or dermal fibroblasts (Cat. No. 106-05a) were first sown in 12-well culture plates and cultured at 37° C., 5% CO2 in Ham's F12 medium, to which 10% fetal calf serum, 20 U/ml penicillin-streptomycin and 50 μg/ml ascorbic acid were added. On every other day, the culture medium was replaced by new culture medium until the cells had reached 80% confluence. […] The Blyscan glycosaminoglycan assay (Article No. 054B3000, 2019, tebu-bio, Offenbach, Germany, or Biocolor Ltd., UK) was used to determine proteoglycans. The biosynthesis of proteoglycans was determined after stimulating dermal fibroblasts for two weeks. According to the manufacturer's instructions, after discarding the culture medium, the cell layers were covered with 1 ml of papain extraction solution and incubated for three hours at 65° C. with vigorous shaking. The cell suspensions were then centrifuged (10,000 g, 10 min) and the supernatants were collected. After adding 1 ml of Blyscan dye solution and shaking (30 min), the supernatants were centrifuged again (12,000 rpm, 10 min) and then discarded. The isolated proteoglycan pellets were resuspended in 500 μl of dissociation solution. A photometric determination of the synthesized proteoglycan in 200 μl sample solution was carried out at a wavelength of 656 nm in comparison to untreated control experiments.

[3] = system: human chondrocytes; experiment: Blyscan glycosaminoglycan assay, proteoglycan synthesis by chondrocytes; conditions: 0.5 mg/ml; for increase in the synthesis of proteoglycans by chondrocytes compared to untreated controls: non-hydroxylated peptides; for increase in collagen synthesis (in the proteoglycan assay, chondrocytes): hydroxylated peptides
[4] = system: human chondrocytes; experiment: Sircol collagen assay, collagen synthesis by chondrocytes; conditions: 0.5 mg/ml peptide, three weeks stimulation
Protocol: as §1

Row | Substance | increase in collagen synthesis by dermal fibroblasts compared to untreated controls [1] [%] | increase in collagen synthesis (in the proteoglycan assay, dermal fibroblasts) [2] [%] | increase in the synthesis of proteoglycans by chondrocytes compared to untreated controls [3] [%] | increase in collagen synthesis by chondrocytes compared to untreated controls [4] [%] | increase in the synthesis of proteoglycans by dermal fibroblasts compared to untreated controls [2] [%] | increase in collagen synthesis (in the proteoglycan assay, chondrocytes) [3] [%]
1 | GAPGKDGVRGLTGPIGPPGPAGA [SEQ ID No. 12, collagen peptide comprising 23 amino acids] | 22 | 19 | 23 | 24 | – | –
2 | GPPGPAGEKGAPGADGPAGAPGTPGPQGIAGQRGV [SEQ ID No. 16, collagen peptide comprising 35 amino acids] | 22 | 18 | 18 | 31 | – | –
3 | GAPGKDGVRGL [SEQ ID No. 11, collagen peptide comprising 11 amino acids] | 19 | 18 | 28 | 16 | – | –
4 | Gly-Ala-4Hyp-Gly-Lys-Asp-Gly-Val-Arg-Gly-Leu-Thr-Gly-Pro-Ile-Gly-Pro-4Hyp-Gly-Pro-Ala-Gly-Ala-Arg (GA[Hyp]GKDGVRGLTGPIGP[Hyp]GPAGAR) [SEQ ID No. 9, collagen peptide comprising 24 amino acids] | 38 | – | – | 24 | 27 | 19
5 | Gly-Ala-4Hyp-Gly-Lys-Asp-Gly-Val-Arg-Gly-Leu-Thr-Gly-Pro-Ile-Gly-Pro-4Hyp-Gly-Pro-Ala-Gly-Ala-4Hyp (GA[Hyp]GKDGVRGLTGPIGP[Hyp]GPAGA[Hyp]) [SEQ ID No. 8, collagen peptide comprising 24 amino acids] | 37 | – | – | 24 | 23 | 20
6 | KGAPGADGPAGAPGTPGPQ [SEQ ID No. 15, collagen peptide comprising 19 amino acids] | 23 | 18 | 6 | 31 | – | –
7 | Gly-Ala-4Hyp-Gly-Lys-Asp-Gly-Val-Arg-Gly-Leu-Thr-Gly-Pro-Ile-Gly-Pro-4Hyp-Gly-Pro-Ala-Gly-Ala-4Hyp-Gly-Asp-Lys-Gly-Glu-Ala-Gly-Pro-Ser-Gly-Pro-Ala-Gly-Pro-Thr-Gly-Ala-Arg-Gly-Ala-4Hyp-Gly-Asp-Arg-Gly-Glu-4Hyp-Gly-Pro-4Hyp-Gly-Pro-Ala-Gly [SEQ ID No. 19] | 40 | – | – | 37 | 29 | 18
8 | Gly-Ala-4Hyp-Gly-Lys-Asp-Gly-Val-Arg-Gly-Leu (GA[Hyp]GKDGVRGL) [SEQ ID No. 17, collagen peptide comprising 11 amino acids] | 42 | – | – | 33 | 24 | 31
